In this test the target is T1, ABHD12 (Mus musculus, UniProt Q99LR1).
T1 construct: from tissue; host or cells: mouse brain (membrane fraction)
T1 sequence (Q99LR1 1-398): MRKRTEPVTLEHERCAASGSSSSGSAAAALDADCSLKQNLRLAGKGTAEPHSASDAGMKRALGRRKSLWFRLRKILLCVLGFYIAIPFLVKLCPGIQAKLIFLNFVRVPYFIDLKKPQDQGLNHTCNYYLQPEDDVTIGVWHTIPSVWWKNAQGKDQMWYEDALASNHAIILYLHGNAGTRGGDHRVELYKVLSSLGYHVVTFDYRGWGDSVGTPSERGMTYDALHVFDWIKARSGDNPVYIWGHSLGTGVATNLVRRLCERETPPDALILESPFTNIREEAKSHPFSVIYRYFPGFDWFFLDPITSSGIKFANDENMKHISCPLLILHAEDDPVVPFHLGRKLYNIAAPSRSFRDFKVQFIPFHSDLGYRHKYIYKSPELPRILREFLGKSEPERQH
Kind of test: In vitro competitive activity-based protein profiling (FP-Rhodamine probe, gel-based) in mouse brain membrane proteomes. The test is classed as biochemical. The conditions noted are these: mouse brain membrane proteome, 30 min preincubation at 37° C.; for inhibition at 1 µM: 1 μM inhibitor; for inhibition at 50 µM: 50 μM inhibitor (stated in cell); for inhibition at 10 µM: 10 μM inhibitor (stated in cell). The protocol: Compounds were tested to assess their ABHD12 activity using the following assay.
Mouse brain membrane proteomes (50 μL, 1.0 mg/mL total protein concentration) were preincubated with varying concentrations of inhibitors at 37° C. After 30 min, FP-Rhodamine probe (1.0 μL, 50 μM in DMSO) was added and the mixture was incubated for 30 min at room temperature. Reactions were quenched with SDS loading buffer (15 μL-4×) and proteins were resolved by SDS-PAGE gel (10% acrylamide). Following in-gel fluorescence imaging, enzyme activity was determined by measuring intensity of gel bands corresponding to ABHD12 using ImageJ software.

Each structure is given as a SMILES string.

As a reminder, the inhibition is the change of the read-out against control, counted positive when it falls. Low values mean a weak effect, high ones a strong effect. The IC50 is the concentration that inhibits the measured activity by half. A low value points to higher potency.

In turn, `Cc1cc(OC(F)(F)F)ccc1Oc1ccnc(N2CCC(NC(=O)Nc3cccnc3)CC2)c1Cl` [Example 16, 1-(1-(3-Chloro-4-(2-methyl-4-(trifluoro-methoxy)phenoxy)pyridin-2-yl)piperidin-4-yl)-3-(pyridin-3-yl)urea] displayed an inhibition at 1 µM of no less than 75% and an IC50 of 100 to 1000 nM. Turning to `CC(C)OC(=O)N1CCC(Oc2ccnc(N3CCC(NC(=O)Nc4cccnc4)CC3)c2)CC1` [Example 22, Isopropyl 4-((2-(4-(3-(pyridin-3-yl)ureido)piperidin-1-yl)pyridin-4-yl)oxy) piperidine-1-carboxylate], the inhibition at 50 µM is 25 to 50%.

`O=C(Nc1cccnc1)NC1CCN(c2nccc(Oc3ccc(OC(F)(F)F)c(Cl)c3)c2Cl)CC1` [Example 15, 1-(1-(3-Chloro-4-(3-chloro-4-(trifluoro-methoxy)phenoxy)pyridin-2-yl)piperidin-4-yl)-3-(pyridin-3-yl)urea] gave an inhibition at 1 µM of no less than 75% and a half-inhibitory concentration (IC50) of 100 to 1000 nM. Compound `O=C(Nc1cccnc1)NC1CCN(c2cc(Oc3ccc(C(F)(F)F)cc3)ccn2)CC1` [Example 7, 1-(Pyridin-3-yl)-3-(1-(4-(4-(trifluoromethyl)phenoxy)pyridin-2-yl)piperidin-4-yl)urea] returned an inhibition at 1 µM of 25 to 50%. Take `N#Cc1c(Oc2ccc(C(F)(F)F)cc2)ccnc1N1CCC(NC(=O)Nc2cccnc2)CC1` [Example 20, 1-(1-(3-Cyano-4-(4-(trifluoro-methyl)phenoxy)pyridin-2-yl)piperidin-4-yl)-3-(pyridin-3-yl) urea]: the inhibition at 1 µM lay in the range of 50 to 75%. In the case of `O=C(Nc1cccnc1)NC1CCN(c2ncccc2Oc2ccc(OC(F)(F)F)cc2Cl)CC1` [Example 23, 1-(1-(3-(2-Chloro-4-(trifluoro-methoxy)phenoxy)pyridin-2-yl)piperidin-4-yl)-3-(pyridin-3-yl) urea], the inhibition at 1 µM was no less than 75% and the IC50 lay within 100 to 1000 nM.

The compound `C#Cc1ccc(N2CCC(NC(=O)Nc3cccnc3)CC2)nc1` [Example 25, 1-(1-(5-Ethynyl-pyridin-2-yl)piperidin-4-yl)-3-(pyridin-3-yl)urea] registered an inhibition at 1 µM of 0 to 25%. On to `O=C(Nc1cccnc1)NC1CCN(c2nccc(-c3cccc(OC(F)(F)F)c3)c2Cl)CC1` [Example 26, 1-(1-(3-Chloro-4-(3-(trifluoro-methoxy)phenyl)pyridin-2-yl)piperidin-4-yl)-3-(pyridin-3-yl)urea], for which the inhibition at 1 µM was no less than 75% and the IC50 is 100 to 1000 nM. In the case of `C#Cc1ccc(Oc2ccnc(N3CCC(NC(=O)Nc4cccnc4)CC3)c2Cl)c(Cl)c1` [Example 6, 1-(1-(3-Chloro-4-(2-chloro-4-ethynylphenoxy)pyridin-2-yl)piperidin-4-yl)-3-(pyridin-3-yl)urea], the inhibition at 1 µM is no less than 75% and the IC50 lay within 100 to 1000 nM. Turning to `O=C(Nc1cccnc1)NC1CCN(c2nccc(-c3ccc(OC(F)(F)F)cc3)c2Cl)CC1` [Example 27, 1-(1-(3-Chloro-4-(4-(trifluoro-methoxy)phenyl)pyridin-2-yl)piperidin-4-yl)-3-(pyridin-3-yl)urea], the inhibition at 1 µM is no less than 75% and the IC50 lay within 100 to 1000 nM. For the compound `COc1ccnc(N2CCC(NC(=O)Nc3cccnc3)CC2)c1` [Example 18], the inhibition at 1 µM was in the range of 0 to 25%.

`O=C(Nc1cccnc1)NC1CCN(c2nccc(C(F)(F)F)c2Cl)CC1` [Example 8, 1-(1-(3-Chloro-4-(trifluoro-methyl)pyridin-2-yl)piperidin-4-yl)-3-(pyridin-3-yl)urea] gave an inhibition at 10 µM of 50 to 75%. In the case of `O=C(Nc1cccnc1)NC1CCN(c2nccc(OCc3ccc(OC(F)(F)F)cc3)c2Cl)CC1` [Example 28, 1-(1-(3-Chloro-4-((4-(trifluoro-methoxy)benzyl)oxy)pyridin-2-yl)piperidin-4-yl)-3-(pyridin-3-yl)urea], the inhibition at 1 µM is 25 to 50%. Take `Cc1c(Oc2ccc(OC(F)(F)F)cc2)ccnc1N1CCC(NC(=O)Nc2cccnc2)CC1` [Example 9, 1-(1-(3-Methyl-4-(4-(trifluoro-methoxy)phenoxy)pyridin-2-yl)piperidin-4-yl)-3-(pyridin-3-yl) urea]: the inhibition at 1 µM is no less than 75% and the IC50 is 100 to 1000 nM. Turning to `O=C(Nc1cccnc1)NC1CCN(c2cccc(C(F)(F)F)n2)CC1` [Example 1, 1-(Pyridin-3-yl)-3-(1-(6-(trifluoromethyl)pyridin-2-yl)piperidin-4-yl)urea], the inhibition at 10 µM is 50 to 75%.

In the case of `O=C(Nc1cccnc1)NC1CCN(c2nccc(Oc3ccc(Cl)c(OC(F)(F)F)c3)c2Cl)CC1` [Example 2, 1-(1-(3-Chloro-4-(4-chloro-3-(trifluoromethoxy)phenoxy)pyridin-2-yl)piperidin-4-yl)-3-(pyridin-3-yl)urea], the inhibition at 1 µM is no less than 75% and the IC50 was in the range of 100 to 1000 nM. The compound `O=C(Nc1cccnc1)NC1CCN(c2ccc(Cl)cn2)CC1` [Example 11, 1-(1-(5-Chloropyridin-2-yl)piperidin-4-yl)-3-(pyridin-3-yl) urea] returned an inhibition at 50 µM of no less than 75%. For `O=C(Nc1cccnc1)NC1CCN(c2nccc(Oc3ccc(OC(F)(F)F)c(F)c3)c2Cl)CC1` [Example 14, 1-(1-(3-Chloro-4-(3-fluoro-4-(trifluoro-methoxy)phenoxy)pyridin-2-yl)piperidin-4-yl)-3-(pyridin-3-yl)urea], the inhibition at 1 µM is no less than 75% and the IC50 is 100 to 1000 nM. With `O=C(Nc1cccnc1)NC1CCN(c2nccc(Oc3cccc(OC(F)(F)F)c3)c2Cl)CC1` [Example 17, 1-(1-(3-Chloro-4-(3-(trifluoro-methoxy)phenoxy)pyridin-2-yl)piperidin-4-yl)-3-(pyridin-3-yl)urea], the inhibition at 1 µM was 50 to 75%.

The compound `O=C(Nc1cccnc1)NC1CCN(c2nccc(OCc3cccc(OC(F)(F)F)c3)c2Cl)CC1` [Example 29, 1-(1-(3-Chloro-4-((3-(trifluoro-methoxy)benzyl)oxy)pyridin-2-yl)piperidin-4-yl)-3-(pyridin-3-yl)urea] had an inhibition at 1 µM of 25 to 50%. In turn, `O=C(Nc1cccnc1)NC1CCN(c2nccc(Oc3ccc(OC(F)(F)F)cc3)c2Cl)CC1` [Example 10, 1-(1-(3-Chloro-4-(4-(trifluoro-methoxy)phenoxy)pyridin-2-yl)pipcridin-4-yl)-3-(pyridin-3-yl) urea] showed an inhibition at 1 µM of no less than 75% and an IC50 of no more than 100 nM. For `N#Cc1ccnc(N2CCC(NC(=O)Nc3cccnc3)CC2)c1` [Example 12, 1-(1-(4-Cyanopyridin-2-yl)piperidin-4-yl)-3-(pyridin-3-yl) urea], the inhibition at 50 µM was 25 to 50%. For `O=C(Nc1cccnc1)NC1CCN(c2nccc(Oc3ccccc3OC(F)(F)F)c2Cl)CC1` [Example 13, 1-(1-(3-Chloro-4-(2-(trifluoro-methoxy)phenoxy)pyridin-2-yl)piperidin-4-yl)-3-(pyridin-3-yl)urea], the inhibition at 1 µM was in the range of 25 to 50%. Same read-out and setting: the figure for `O=C(Nc1cccnc1)NC1CCN(c2nccc(Oc3ccc(F)c(OC(F)(F)F)c3)c2Cl)CC1` [Example 5, 1-(1-(3-Chloro-4-(4-fluoro-3-(trifluoromethoxy)phenoxy)pyridin-2-yl)piperidin-4-yl)-3-(pyridin-3-yl)urea] is 25 to 50%. Compound `O=C(Nc1cccnc1)NC1CCN(c2nc(Oc3ccc(OC(F)(F)F)cc3Cl)ccc2Cl)CC1` [Example 24, 1-(1-(3-Chloro-6-(2-chloro-4-(trifluoro-methoxy)phenoxy)pyridin-2-yl)piperidin-4-yl)-3-(pyridin-3-yl)urea] registered an inhibition at 1 µM of 25 to 50%. Regarding `O=C(Nc1cccnc1)NC1CCN(c2cc(OCC3CC3)ccn2)CC1` [Example 19], the inhibition at 50 µM fell in the range of 50 to 75%. On to `O=C(Nc1cccnc1)NC1CCN(c2cc(-c3ccc(OC(F)(F)F)cc3)ccn2)CC1` [Example 4, 1-(Pyridin-3-yl)-3-(1-(4-(4-(trifluoromethoxy)phenyl)pyridin-2-yl)piperidin-4-yl)urea], for which the inhibition at 1 µM lay within 25 to 50%. The same measure, in the same setting: the value for `CC(=O)c1ccc(N2CCC(NC(=O)Nc3cccnc3)CC2)nc1` [Example 3, 1-(1-(5-Acetylpyridin-2-yl)piperidin-4-yl)-3-(pyridin-3-yl)urea] was 0 to 25%; that for `O=C(Nc1cccnc1)NC1CCN(c2nccc(OC3CCOCC3)c2Cl)CC1` [Example 21, 1-(1-(3-Chloro-4-((tetrahydro-2H-pyran-4-yl)oxy)pyridin-2-yl)piperidin-4-yl)-3-(pyridin-3-yl)urea] was 0 to 25%.

The values are drawn from patent US20220213074A1, “ABHD12 INHIBITORS AND METHODS OF MAKING AND USING SAME” (H. Lundbeck A/S, priority 2019, published 2022).
